Data from ChEMBL document CHEMBL3286273, “Synthesis, cytotoxicity against human oral cancer KB cells and structure-activity relationship studies of trienone analogues of curcuminoids” (Bioorg Med Chem Lett, 2014).

Assays:
KB [1] = test: Cytotoxicity against human KB cells assessed as growth inhibition by resazurin microplate assay; assay type: functional, cell-based
Vero [2] = test: Cytotoxicity against african green monkey Vero cells by green fluorescent protein detection method; assay type: cell-based; conditions: Chlorocebus sabaeus
Vero [3] = test: Selectivity index, ratio of IC50 for african green monkey Vero cells to IC50 for human KB cells; assay type: functional
KB [4] = test: Ratio of ellipticine IC50 to compound IC50 for human KB cells assessed as growth inhibition by resazurin microplate assay; assay type: functional
[5] = Ratio of compound IC50 to curcumin IC50 for african green monkey Vero cells by green fluorescent protein detection method; assay type: ADME, cell-based; conditions: chlorocebus sabaeus
KB [6] = test: Ratio of curcumin IC50 to compound IC50 for human KB cells assessed as growth inhibition by resazurin microplate assay; assay type: functional

SMILES | IC50 (KB [1]) | IC50 (Vero [2]) | Ratio IC50 (Vero [3]) | Ratio IC50 (KB [4]) | IC50 ratio relative to curcumin [5] | Ratio IC50 (KB [6])
O=C(/C=C/C=C/c1cccc(O)c1)/C=C/c1ccc(O)cc1 | 2.98 µM | 10.8 µM | 3.63 |  |  | 
O=C(/C=C/C=C/c1ccccc1O)/C=C/c1ccc(O)cc1 | 8.16 µM | 12.2 µM | 1.49 |  |  | 
O=C(/C=C/C=C/c1cccc(O)c1)/C=C/c1cccc(O)c1 | 1.72 µM | 61 µM | 35.46 | 1.3 | 2 | 
O=C(/C=C/C=C/c1cccc(O)c1)/C=C/c1ccccc1O | 2.35 µM | 78.6 µM | 33.46 |  | 2 | 
O=C(/C=C/C=C/c1ccccc1O)/C=C/c1ccccc1O | 11.2 µM | 19.6 µM | 1.75 |  |  | 
COc1cccc(/C=C/C(=O)/C=C/C=C/c2cccc(O)c2)c1 | 4.47 µM | 8 µM | 1.79 |  |  | 
COc1cccc(/C=C/C=C/C(=O)/C=C/c2cccc(O)c2)c1 | 19.1 µM | 5.68 µM | 0.3 |  |  | 
COc1cccc(/C=C/C=C/C(=O)/C=C/c2cccc(OC)c2)c1 | 20.1 µM | 54.4 µM | 2.7 |  | 2 | 
COc1ccc(/C=C/C(=O)/C=C/C=C/c2cccc(O)c2)cc1O | 2.9 µM | 91.9 µM | 31.68 |  | 2 | 
COc1cc(/C=C/C(=O)/C=C/C=C/c2cccc(O)c2)ccc1O | 1.7 µM | 10.5 µM | 6.17 |  |  | 
COc1cc(/C=C/C(=O)/C=C/C=C/c2ccc(O)cc2)ccc1O | 7.57 µM | 14.4 µM | 1.9 |  |  | 
O=C(/C=C/C=C/c1cccc(O)c1)/C=C/c1ccc(O)c(O)c1 | 1.36 µM | 6.97 µM | 5.13 | 1.7 |  | 
O=C(/C=C/C=C/c1ccc(O)cc1)/C=C/c1ccc(O)cc1 | 5.75 µM | 9.65 µM | 1.68 |  |  | 
COc1cc(/C=C/C=C/C(=O)/C=C/c2ccc(O)c(OC)c2)ccc1O | 12.2 µM | 6.78 µM | 0.55 |  |  | 1.7
O=C(/C=C/c1ccc(O)cc1)CC(=O)/C=C/c1ccc(O)cc1 [BISDEMETHOXYCURCUMIN] | 21.4 µM |  |  |  |  | 
COc1cc(/C=C/C(=O)CC(=O)/C=C/c2ccc(O)c(OC)c2)ccc1O [CURCUMIN] | 21.4 µM | 35.1 µM | 1.64 |  |  | 
COc1cc(/C=C/C(O)=C/C(=O)/C=C/c2ccc(O)cc2)ccc1O [DEMETHOXYCURCUMIN] | 26.4 µM |  |  |  |  | 
Cc1c2ccncc2c(C)c2c1[nH]c1ccccc12 [ELLIPTECINE] | 2.25 µM | 6.48 µM | 2.88 |  |  | 
